Row | melting point | SMILES
1 | 240 to 242 °C | O=C(C1Nc2cc(F)ccc2-n2cnc(-c3nc(C4CC4)no3)c21)N1CCOCC1 (stereo not drawn)
2 | 108 to 109 °C | NC(CCOc1ccncc1)C(=O)c1ccccc1CO (stereo not drawn)
3 | 214 to 215 °C | O=c1[nH]c(=O)n(CCCCN2CCC(OC(c3ccccc3)c3ccccc3)CC2)c2cc([N+](=O)[O-])ccc12
4 | 108 to 112 °C | CCC(C(=O)O)c1ccc(C(=O)c2ccc(Cl)cc2)n1C (stereo not drawn)
5 | 88 to 94 °C | Cc1cccc(NC(=O)N2CCN(CCc3ccc(-c4cccc(N)n4)cc3)CC2)c1
6 | 236 to 238 °C | COC1C(O)C(CO)OC1n1cnc2c(=O)[nH]c(N)nc21 (stereo not drawn)
7 | 146 to 148 °C | COc1cc(Cc2nc(NC(C)(C)C)c3c(C)c(C#N)sc3n2)cc(OC)c1OC
8 | 74.8 to 75 °C | CC(C)(CO)CCCCN1C(=O)c2ccccc2C1=O
9 | 182 to 183 °C | CC(C)(C)c1cc(CCc2ccccc2NC(=O)NCC(C)(C)c2ccccc2F)cc(C(C)(C)C)c1O
10 | 78 to 80 °C | CCCCc1nc(-c2ccc(C(=O)NCCC(C)(C)C)cc2)no1
11 | 150 to 151 °C | c1ccc(NC2CCCN2Cc2c[nH]c3ccccc23)cc1 (stereo not drawn)
12 | 131 to 133 °C | Cc1cc(C)nc(N(CSC(=S)N2CCCC2)C(=O)NS(=O)(=O)c2ccccc2Cl)n1
13 | 148 to 149 °C | O=C(CCn1ccnc1)N1c2ccccc2S(=O)c2ccc(Cl)cc21 (stereo not drawn)
14 | 176 °C | CCC(=CC(N)C(=O)O)CP(=O)(O)O (stereo not drawn)
15 | 75 to 76 °C | CC(=O)N(Cc1ccc2c(c1)OCO2)c1ccc(Oc2ccccc2)cc1
16 | 164 to 165 °C | CCCCCCOc1ccc(-n2cc(C(=O)O)cn2)cc1C#N
17 | 81 to 83 °C | CCOC(=O)c1c(C(F)(F)F)nc(C(F)(F)Cl)c(C(=O)O)c1OCC
18 | 151 to 153 °C | Nc1ccc(Oc2ccc(C(=O)c3ccc(C#Cc4ccccc4)cc3)cc2)cc1
19 | 84 to 86 °C | CCOC(=O)C(CC(=O)c1cccc(Cl)c1)(NC(C)=O)C(=O)OCC
20 | 34 to 36 °C | CC(C)(CO)Cc1ccccc1
21 | 199 to 201 °C | N#CC1(N2CCC(n3c(=O)[nH]c4ccccc43)CC2)CCCCC1
22 | > 320 °C | CC(=O)OC1N=C(c2ccccc2)c2cc(Cl)ccc2-c2c1nc(C)[nH]c2=O (stereo not drawn)
23 | 158 to 159 °C | O=C1c2cccnc2-c2cccnc21
24 | 247 to 249 °C | COc1ccc(-c2ccc3c(c2)C=C(C(=O)Nc2ccc(CN(C)C4CCOCC4)cc2)CCS3(=O)=O)cc1

Row | melting point | SMILES
25 | 277 to 279 °C | O=C(O)CN1C(=O)C(=Cc2c3ccccc3cc3ccccc23)SC1=S
26 | 60 °C | Cc1cccc(CC(=O)c2ccnc(-c3ccc(OC(F)(F)F)cc3)c2)n1
27 | 181 to 182 °C | COc1cc2nc(N3CCc4cc(OCc5ccccc5)c(OC)cc4C3)cc(N)c2cc1OC
28 | 200 to 202 °C | O=C1OC(c2cccc(C(F)(F)F)c2)=NC1=Cc1cccs1
29 | > 340 °C | NC(=O)c1cnc2c(cc([N+](=O)[O-])c3nncc32)c(-c2ccccc2Cl)n1
30 | 244 °C | Cn1c(=O)c2c(NN)nccc2n(C)c1=O
31 | 213 to 215 °C | CCCN=C(N)Nc1ccnc(CCCCc2ncc(C)c(O)n2)n1
32 | 85 to 86 °C | COC(=O)c1ccccc1-c1cc(-c2ccc(Cl)cc2)on1
33 | 191 °C | COc1cc2ncnc(N3CCC(CCBr)CC3)c2cc1OC
34 | 178 °C | CCCCNC(=O)C=C(C)C=CC=C(C)C=Cc1c(C)cc(OC)c(C)c1C
35 | 242 to 243 °C | O=C(Nc1ccc(C(F)(F)F)cc1)C1=NN(c2ccc(Cl)c(Cl)c2)C(c2ccc(F)cc2)C1 (stereo not drawn)
36 | 157 to 160 °C | Cn1nc(-c2ccccc2)c(O)c1-c1ccccc1
37 | 104 to 106 °C | CC(C)[Si](C(C)C)(C(C)C)N1C=C2C=C(C=O)OCC3=C2C(=C1)CC3N(C)C (stereo not drawn)
38 | 218 to 219 °C | O=c1cc(-c2ccc(CO)cc2)oc2ncccc12
39 | 181 to 182 °C | COc1cc(C2c3cc4c(cc3C(O)CC2C(=O)O)OCO4)cc(OC)c1OC (stereo not drawn)
40 | 60 to 63 °C | CCOC(=O)c1[nH]c(C)c(C)c1OCCCCl
41 | 197 to 199 °C | Cc1cc(Cl)c2c(O)c3c(=O)[nH][nH]c(=O)c3nc2c1
42 | 91.4 °C | Cc1sc([Si](C)(C)C)cc1C1=C(c2cc([Si](C)(C)C)sc2C)C(F)(F)C(F)(F)C1(F)F
43 | 120 to 121 °C | CCNc1cc2c(cc1Cl)CCN(C)C[C@@H]2c1ccccc1
44 | 158 to 159 °C | Cc1cc(-c2ccc(S(C)(=O)=O)cc2)n(-c2ccc(F)cc2)c1Br
45 | 218 to 220 °C | COc1ccc2c(CCCC(=O)O)nnc(-c3nccs3)c2c1
46 | 150 to 152 °C | COC(=O)c1ccccc1-n1c(CCl)nc2cc(Cl)ccc2c1=O
47 | 137 to 139 °C | O=C(c1ccccc1)N1CCN2c3ccccc3Cn3cccc3C2C1 (stereo not drawn)
48 | 256 to 261 °C | CCNC(=O)c1ccc2oc(C(=O)C(Cc3ccccc3)NC(=O)Cn3c(-c4ccc(F)cc4)ncc(NC(=O)OCc4ccccc4)c3=O)nc2c1 (stereo not drawn)

Row | melting point | SMILES
49 | 134 to 135 °C | Cc1ccc(C2SC3(CCN(CCCC(=O)c4ccc(F)cc4)CC3)c3ccccc32)cc1 (stereo not drawn)
50 | 126 to 127 °C | CC[C@H](C1CC1)n1cc(Cl)nc(N2CCc3cc(Br)cc(Cl)c32)c1=O
51 | 152 to 153 °C | CCOC(=O)c1ccc(Oc2ccccc2C(=O)O)cc1
52 | 116 to 122 °C | CC(C)(C)NNC(=O)c1ccc(Cl)cc1
53 | 187 to 190 °C | C#Cc1ccnc(-c2cc([N+](=O)[O-])c(-c3ccccc3)cc2N)c1
54 | 56 to 58 °C | CNN(NC)C(=O)Sc1cccnc1C(=O)OC
55 | 173 to 175 °C | COC(=O)C1=C(O)c2ccccc2S(=O)(=O)N1
56 | 236 °C | COC(=O)c1ccc2c(c1)S(=O)(=O)c1ccccc1NC2
57 | 112 °C | CCCCCC=Cc1cccc2c(=O)[nH]c(-c3cc(S(=O)(=O)N4CCOCC4)ccc3OCCC)nc12
58 | 111 to 113 °C | COc1ccc(-n2nc(C(F)(F)F)cc2OCN2C(=O)c3c(C(C)C)cc(OC)cc3S2(=O)=O)cc1
59 | 254 to 256 °C | O=C(c1sc2c([N+](=O)[O-])c(O)c(O)cc2c1Cl)N1CCCCC1
60 | 169 to 171 °C | COc1cc2c(CC#N)c(Br)[nH]c2cc1Br
61 | 128 to 130 °C | CCOC(=O)C(C#N)C1(C#N)C(=O)N(Cc2ccc(C)cc2)c2c(C)cccc21 (stereo not drawn)
62 | 248 °C | CC(C)C(=O)Nc1ccc(C(=O)Nc2ccccc2N)cc1
63 | 142 °C | CCCc1nc(SC(F)F)c(C(=O)O)n1Cc1ccc(-c2ccccc2S(=O)(=O)NC(=O)NCc2cccs2)cc1
64 | 202 to 205 °C | CCOC(=O)c1ccc(N=C(Nc2ccc(C(=O)OCC)cc2)c2ccc([N+](=O)[O-])cc2)cc1
65 | 257 to 260 °C | COc1cccc2c(=O)[nH]nc(C)c12
66 | 202 to 205 °C | CC1(C(=O)NCCc2ccc(CCC(=O)O)cc2)C=CN=N1 (stereo not drawn)
67 | 101 to 102 °C | CCCCCCCCCCCCCCCc1cccc(OC)c1C1NC(=O)NC(C)=C1C(=O)OC (stereo not drawn)
68 | 111 to 112 °C | Ic1cccc(OCc2ccc3ccccc3c2)c1
69 | 56 to 57.5 °C | CC(C)(C)c1cc(C=O)c(O)c(C(F)(F)F)c1
70 | 152 °C | CS(=O)(=O)C(=C1CN(C(c2ccccc2)c2ccccc2)C1)c1cccc(C#N)c1
71 | 107 to 109 °C | CCCCCCCCc1ccc(CCC(CC)(COC(C)=O)NC(C)=O)cc1 (stereo not drawn)
72 | 90.5 to 91 °C | COc1nc(OC)c(SC)c(OC)n1

Row | melting point | SMILES
73 | 66 to 70 °C | CCN(CC)c1nc(C(F)(F)C(F)(F)F)nn1-c1c(Cl)cc(Cl)cc1Cl
74 | 89 °C | COc1ccc(SC(C)(CC=C(C)C)C(=O)NO)cc1 (stereo not drawn)
75 | 136 to 137 °C | CCC(=O)Nc1n[nH]c(C(C)(C)C)c1Cl
76 | 167 to 171 °C | O=C(O)c1ccc2cc(OCCCCCCc3cccc(O)c3O)ccc2c1
77 | 220 to 222 °C | CCOC(=O)C1=C(C)NC2=C(C(=O)OC2)C1c1ccccc1[N+](=O)[O-] (stereo not drawn)
78 | 157 to 159 °C | CCN(CC)Cc1cc(NC(C)=O)c2c(c1O)CCCC2
79 | 131 to 135 °C | CC1=C(C(C)O)C(C)(C)CCC1=NO (stereo not drawn)
80 | 91 to 93 °C | Cc1c(C)c2c(c(C)c1O)C(c1ccc(N3CCOCC3)cc1)C(C)(C)O2 (stereo not drawn)
81 | 83 to 85 °C | O=C(CNC(=O)c1ccc(/C=C/C(c2cc(Cl)c(Cl)c(Cl)c2)C(F)(F)F)cc1Cl)NCC(F)(F)F (stereo not drawn)
82 | 114 °C | CC(C)C(O)(Cn1cncn1)c1ccc(Oc2ccc(Cl)cc2)cc1C(F)(F)F (stereo not drawn)
83 | 68 to 69 °C | Cc1c(Cl)cc(C(C)(C)C)c(O)c1C(=O)Oc1ccccc1
84 | 124 °C | COc1ccc(CN(C)CCCOc2cccc(NC(=O)c3cccc4c(=O)c5cccc(OC)c5[nH]c34)c2)cc1OC
85 | 184 to 186 °C | CCOc1cc2c(Nc3cc(OC)c(Cl)cc3Cl)c(C#N)cnc2cc1F
86 | 115 to 117 °C | CCS(=O)(=O)c1cc(C(=O)Cl)c(OC)cc1Cl
87 | 197 to 205 °C | COc1ccc(CN(CCC(=O)O)c2nc(NC(=O)Nc3ccccc3OC)nc(Oc3ccc4ccccc4c3)n2)cc1
88 | 106 to 109 °C | CC(=O)CC(=O)OCN1C(=O)c2ccccc2C1=O
89 | 120 to 122 °C | Cc1ccsc1C(=O)Cc1ccc(C(F)(F)F)cc1[N+](=O)[O-]
90 | 157 to 158 °C | COCN(c1cccc2cc(-c3ncn(C)n3)n(COC)c12)S(=O)(=O)c1cccs1
91 | 168 to 170 °C | C=CCOc1ccc(-c2ccc(O)cc2)cc1
92 | 156 to 158 °C | CC(=Cc1ccccc1)c1ccc2c(c1)C(C)(C)CCS2(=O)=O
93 | 139 to 140 °C | O=C(O)c1ccc(OC(F)=C(F)F)cc1
94 | 255 to 257 °C | COc1cc(C(F)(F)F)ccc1-c1ccc2c(c1)S(=O)(=O)NC(C1CCCCC1)N2 (stereo not drawn)

Row | SMILES | melting point
95 | CC(=O)C1CCC2C3CCC4CC(O)C(Br)CC4(C)C3C(=O)CC12C (stereo not drawn) | 172 to 173 °C
96 | CN1C(=O)CN=C(c2ccccc2F)c2cc(NC(=O)N3CCSC3)ccc21 | 185 °C
97 | C=C=CP1(=O)OCC(C)(C)CO1 | 128 to 133 °C
98 | Cc1sc2c(c1C)C(c1ccc(Cl)cc1)=NC(CC(=O)NCCN)c1nnc(C)n1-2 (stereo not drawn) | 142 to 146 °C

— a melting point compilation (Tetko et al.; mined from patent text by program, amines drawn as free bases though some values may be those of a salt)
